We go through 7 compounds from patent publication US20050085528A1 (priority 2003, published 2005).

As usually defined, the IC50 is the concentration needed to halve the response being measured.

Series [1] concerns HCV replicon (Huh 5-2 [I389luc-ubi-neo-NS3-3′/5.1]). The experiment in a line: microbe, parasite or virus in culture. The format is cell-based. As to conditions: for Inhibition of luciferase expression in replicon cells (in words): FIG. 2; for IC50: Hepatitis C virus, Huh-5-2, luciferase, 72 hours statin treatment. For orientation: Replicon systems follow genome replication, usually without infectious particles.

A short description of another series: in vitro. To be noted: replicon cells (lucubineo cells).
In series [2] the test system is Replicon cells. Briefly: cells. To be noted: read-out: Cytostatic (IC50).
Another series concerns HCV replicon RNA. The experiment in a line: Quantitative RT-PCR (Taqman) of replicon RNA. The format is cell-based. To be noted: FIG. 2A. How it is done: Statin-treated cells in the duplicate clear plate were analysed for cytotoxicity by addition of 10 μL WST-1 reagent (Roche Biosciences) to each well and incubated for 37° C. for 60 minutes. After vigorous shaking, the plate was read at 450 nm. The supernatent was removed and the monolayer washed with PBS prior to addition 100 μL RLT lysis buffer (Qiagen RNAeasy kit) to each test well, followed by vigorous resuspension to ensure uniform lysis of all cells. Total RNA was extracted according to Qiagen RNAeasy protocols recommended by manufacturer. Briefly, 0.1 μg total RNA was reverse transcribed using random hexamers and 20% cDNA produced was used as a template in a Taqman reaction (Universal PCR Master Mix protocol p\n 43044449 Rev B).
These procedures are described in Perkin Elmer Biosystems User Bulletin 2. Briefly, the quantity of replicon RNA in a given sample was determined relative to the untreated control and normalised with respect to actin. Having established that the efficiencies of the replicon and actin PCR reactions were similar (data not shown), the relative quantity of replicon RNA was described by 2^−ΔΔCt where, ΔΔCt=ΔCt(test)−ΔCt(control) ΔCt(test)[…]−Ct(actin) and ΔCt(control)=Ct(control)−Ct(actin) Cholesterol Biosynthesis Assay
(In qPCR the cycle at which signal appears reflects the starting amount.)

The conditions of series [3]: 6- to 12-month course; cited from earlier work.
Series [4] relates to Replicon cells. To be noted: @ 10 μM.
A further series deals with EMCV IRES. Briefly: Green fluorescent protein assay (pIRES2-EGFP). To be noted: atorvastatin concentrations which reduced HCV replicon activity (10 uM, FIG. 5). The format is cell-based, Encephalomyocarditis virus.
In series [5] the test system is Replicon cells.

Experimental for EMCV IRES: Replicon cells were electroporated in cytomix buffer at 10^7 cells/mL at 960 uF, 270 V with varying amounts pIRES2-EGFP. Cell viability was monitored by trypan blue staining and cell counting. Aliquots of cells (2×10^4) were plated out in clear bottomed black 96 well plates and incubated for 24 hours. The cells were rinsed with PBS and fluorescence output read using an Analyst HT (LJL Biosystems).
Impairment of this function was examined in the presence of statins. Replicon cells were transfected with varying amounts of pIRES2-EGFP in which the green fluorescent protein reporter is expressed by a EMCV IRES.

Turning to `CC[C@H](C)C(=O)O[C@H]1C[C@@H](C)C=C2C=C[C@H](C)[C@H](CC[C@@H]3C[C@@H](O)CC(=O)O3)[C@H]21` [Lovastatin], in series [1], the “Inhibition of luciferase expression in replicon cells (in words)” value was “dose dependent inhibition” and the IC50 worked out at 7.9 µM. Also, in “in vitro”, the IC50 at 72 h was 158 µM. In the series on Replicon cells [2], the IC50 was 89.3 µM. For the same compound, the “Replicon RNA by RT-PCR, normalised to beta actin” value in the series with HCV replicon RNA was “quantitative reduction of replicon RNA”.

Take Alpha interferon: the “Patients in whom an autoimmune condition is triggered” value in series [3] is recorded as “about 2%”.

In the case of `CC(C)c1c(C(=O)Nc2ccccc2)c(-c2ccccc2)c(-c2ccc(F)cc2)n1CC[C@@H](O)C[C@@H](O)CC(=O)O` (relative stereo) [Atorvastatin, [R-(R*,R*)]-2-(4-fluorophenyl)-b,d-dihydroxy-5-(1-methylethyl)-3-phenyl-4[(phenylamino)carbonyl]-IH-pyrrole-1-heptanoic acid], in series [1], the “Inhibition of luciferase expression in replicon cells (in words)” value is recorded as “increased antiviral activity compared to lovastatin”. Further, the IC50 in series [1] amounted to 4.1 µM; with Replicon cells [2], 2.5 µM. For the same compound, the “Cytotoxicity, % at one concentration” value in the series on Replicon cells [4] turned out to be 18.3% @ 10 μM. The “Effect on GFP signal driven by EMCV IRES” value with EMCV IRES was “no effect”.

On to `C[C@@](O)(CCO)CC(=O)O` [MVA, mevalonic acid], for which the “Rescue of atorvastatin inhibition of HCV replicon activity by MVA” value in series [1] (14 μM MVA, 10 uM atorvastatin, FIG. 3A) was “begins to alleviate the atorvastatin inhibition”; in series [1] (further addition of MVA, 10 μM atorvastatin) it was “completely restores replicon activity”. Also, in series [1] (absence of statin, FIG. 3B), the “Response of control HCV replicon cells to MVA” value is reported as “do not respond”.

In the series “in vitro”, `CCC(C)(C)C(=O)O[C@H]1C[C@@H](C)C=C2C=C[C@H](C)[C@H](CC[C@@H]3C[C@@H](O)CC(=O)O3)[C@H]21` [Simvastatin] yielded an IC50 at 72 h of 64.7 µM. Further, in the series with Replicon cells [2], the half-inhibitory concentration (IC50) came out at 28 µM.

As for `CC[C@H](C)C(=O)O[C@H]1C[C@H](O)C=C2C=C[C@H](C)[C@H](CC[C@@H](O)C[C@@H](O)CC(=O)O)[C@H]21` [Pravastatin], the IC50 in series [1] is 322 µM. In addition, the “Cytostatic, % at one concentration” value in the series on Replicon cells [5] is listed as 25% @ 500,000 μM.

Take `COCc1c(C(C)C)nc(C(C)C)c(/C=C/[C@@H](O)C[C@@H](O)CC(=O)O)c1-c1ccc(F)cc1` [Cerivastatin]: the IC50 in series [1] turned out to be 1.1 µM; in the series with Replicon cells [2], 5.5 µM. In “in vitro”, this compound showed an IC50 at 72 h of 4.9 µM.
